One test relates to NIH 3T3. The test can be described thus: Titer (transduction) of chimeric envelope constructs on NIH 3T3 cells. The note with it: qualitative; FIG. 12. The format is cell-based, mouse. How it is done: Transfections were done by calcium phosphate precipitation method, described by Graham and van der Eb (Graham and van der Eb, 1973) leaving the calcium precipitate on the cells for 24 hours. 293T cells were transfected using 8 μg of envelope expression plasmid, 2 μg gagpol expression plasmid (Morita et al., 2000) and 1 μg of an EGFP expressing plasmid. EGFP was included as a visual aid to determine the success of transfections. Medium on the transfected cells was renewed every day until it was used for transduction, usually between 48 and 72 hours after transfection, depending on the number of green fluorescing cells.
The day before transduction, medium was changed from fetal calf serum to newborn calf serum containing medium. Semi-packaging cells (Bahrami et al., 2003) were seeded at concentration of 10^4 cells/cm^2 24 hours before transduction.
Supernatant from transfected cells was filtered (0.22μ). The supernatant with 6 μg/mL polybrene was added to the target cells. 24 hours later, the infected cells were selected using medium described before containing 600 μg/mL G418 for 10 days.

The target of another test is T1, CXCR4 (Homo sapiens, UniProt P61073).
T1 construct: expressed in transfected cells; host or cells: D17 (dog) cells carrying CD4 and CXCR4
T1 sequence (P61073 whole entry): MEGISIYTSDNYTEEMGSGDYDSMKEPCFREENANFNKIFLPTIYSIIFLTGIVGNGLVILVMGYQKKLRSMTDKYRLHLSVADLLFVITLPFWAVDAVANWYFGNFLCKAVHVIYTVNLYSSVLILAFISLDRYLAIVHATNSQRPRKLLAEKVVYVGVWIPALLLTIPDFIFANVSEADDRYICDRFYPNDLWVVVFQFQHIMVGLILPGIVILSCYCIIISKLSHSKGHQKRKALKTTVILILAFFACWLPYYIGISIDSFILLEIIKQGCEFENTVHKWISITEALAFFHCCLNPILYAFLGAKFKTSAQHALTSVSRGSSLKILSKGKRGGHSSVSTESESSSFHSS
The test can be described thus: Flow cytometry of cell surface expression of CXCR4 on transduced D17 CD4 CXCR4 cells. The test is classed as cell-based. The following applies: D17 CD4 CXCR4 cells transduced with envelope vector; FIG. 6. How it is done: Method: Flow cytometric analysis was carried out of Cell Surface Expression (CSE) of CXCR4 of cells transduced with vectors comprising the chimeric envelope polypeptide of the present invention. D17 CD4 CXCR4 cells were transduced with a vector expressing SL3-2 envelope with V3 loop inserted at positions indicated.
[…]; 315:51-61). The virus containing supernatant was subsequently used to transduce the D17 CXCR4CD4 cells.
Six chimeric variants have been tested (sequences used shown in SEQ ID NO: 3-8 and 42-47). In all panels the control D17 CD4 CXCR4 cells with […] envelope only (without the V3 insert) was tested against the same envelope comprising a V3 loop variant.
Protocol for flow cytometry: • Harvest cells (by nice trypzination) and spin down gently (1200 rpm, 5 min) • Keep cells on ice in all subsequent steps. • Wash once in wash buffer (2% Serum, 98% PBS—cold) ? […]

Regarding “wild-type SL3-2: SL3-2 murine leukaemia virus envelope polypeptide (SEQ ID NO: 2 / 60) [reference compound]”, the “Infection of NIH mouse cells” value in the test with NIH 3T3 was “can be infected”. For the same substance, the “Binding of anti CXCR-4 antibody / CXCR-4 cell surface expression level” value with CXCR4 is on record as “does not affect the expression levels of CXCR-4”.

The values are drawn from patent publication US8557971B2, “Chimeric viral envelopes” (Aarhus Universitet, priority 2006, dated 2013).
